Reference: US7468376B2, “Pyrazolopyridine derivates” (Palau Pharma, S.A., priority 2003, dated 2008)

System: TNF-α release induced by LPS in human peripheral blood mononuclear cells
Assay: Test 2: Inhibition of TNF-α release induced by LPS in human peripheral blood mononuclear cells
Assay type: cell-based
Conditions: Homo sapiens, PBMC, test product at 0.1 μM, LPS 400 ng/mL, 19 h, TNF-α in supernatant by ELISA
Protocol: Test 2: Inhibition of TNF-α Release Induced by LPS in Human Peripheral Blood Mononuclear Cells
To obtain the mononuclear cells: heparinized venous blood, obtained from healthy volunteers, is diluted with an equal volume of saline phosphate buffer without calcium or magnesium. Aliquots of 30 mL of the mixture are transferred to 50 mL centrifuge tubes containing 15 mL of Ficoll-Hypaque (1.077 g/mL). The tubes are centrifuged at 1200×g for 20 min at room temperature without braking. Approximately two-thirds of the band of platelets lying above the mononuclear cells is removed with a pipette. The mononuclear cells are carefully transferred to a 50 mL tube, washed twice with saline phosphate buffer, centrifuged at 300×g for 10 min at room temperature and resuspended in RPMI supplemented with 1% inactivated fetal bovine serum at a cell density of 2×10^6 cells/mL.
Inhibition of TNF-α release: 100 μL of mononuclear cells (2×10^6 cells/mL) are incubated on 96-well plates with 50 μL of the test product (final concentration, 0.001-10 μM) and 50 μL LPS (E. coli 055B5, Sigma) at a final concentration of 400 ng/mL for 19 h at 37° C. in an atmosphere with CO2 at 5%. The amount of TNF-α released in the supernatant is quantified using a commercial ELISA kit (Biosource International).

| Structure (SMILES) | inhibition at 0.1 µM |
| --- | --- |
| Fc1ccc(-c2nc3nn(CCC4CCNCC4)cc3c(-c3ccc(F)cc3)c2-c2ccncc2)cc1 [Example 43, 4,6-Bis(4-fluorophenyl)-2-[2-(4-piperidyl)ethyl]-5-(4-pyridyl)pyrazolo[3,4-b]pyridine] | 61.2% |
| OCCn1cc2cc(-c3ccnc(NCC4CC4)n3)c(-c3ccc(F)cc3)nc2n1 [Example 211, 2-[5-[2-[(Cyclopropylmethyl)-amino]pyrimidin-4-yl]-6-(4-fluorophenyl)pyrazolo[3,4-b]pyridin-2-yl]ethanol] | 70.6% |
| Cn1cnc(-c2c(-c3ccncc3)c(-c3ccc(F)cc3)nc3nn(C)cc23)c1 [Example 184, 6-(4-Fluorophenyl)-2-methyl-4-(1-methyl-1H-imidazol-4-yl)-5-(4-pyridyl)pyrazolo[3,4-b]pyridine] | 71.2% |
| CC(CO)Nc1nccc(-c2cc3cn(C)nc3nc2-c2ccc(F)cc2)n1 (centres unmarked) [Example 283, 2-[4-[6-(4-Fluorophenyl)-2-methylpyrazolo[3,4-b]pyridin-5-yl]pyrimidin-2-ylamino]propan-1-ol] | 52.4% |
| NCc1n[nH]c2nc(-c3ccc(F)cc3)c(-c3ccncc3)c(-c3ccc(F)cc3)c12 [Example 68, 3-Aminomethyl-4,6-bis(4-fluorophenyl)-5-(4-pyridyl)-1H-pyrazolo[3,4-b]pyridine] | 50% |
| Cn1cc2c(-c3ccccc3)c(-c3ccncc3)c(-c3ccccc3)nc2n1 [Example 22, 2-Methyl-4,6-diphenyl-5-(4-pyridyl)pyrazolo[3,4-b]pyridine] | 56.5% |
| OCCn1cc2c(-c3ccccc3)c(-c3ccncc3)c(-c3ccccc3)nc2n1 [Example 196, 2-[4,6-Diphenyl-5-(4-pyridyl)pyrazolo-[3,4-b]pyridin-2-yl]ethanol] | 70.2% |
| Fc1ccc(-c2nc3c(cnn3CC3CCNCC3)c(-c3ccc(F)cc3)c2-c2ccncc2)cc1 [Example 39, 4,6-Bis(4-fluorophenyl)-1-(4-piperidylmethyl)-5-(4-pyridyl)pyrazolo[3,4-b]pyridine] | 51.1% |
| Oc1ccc(-c2c(-c3ccncc3)c(-c3ccc(F)cc3)nc3[nH]ncc23)cc1 [Example 72, 4-[6-(4-Fluorophenyl)-5-(4-pyridyl)-1H-pyrazolo[3,4-b]pyridin-4-yl]phenol] | 52.7% |
| Cn1cc2cc(-c3ccnc(NCC4CC4)n3)c(-c3ccc(F)cc3)nc2n1 [Example 210, N-Cyclopropylmethyl-[4-[6-(4-fluorophenyl)-2-methylpyrazolo[3,4-b]pyridin-5-yl]pyrimidin-2-yl]amine] | 57.3% |
| Fc1ccc(-c2nc3nn(CCN4CCOCC4)cc3c(-c3ccc(F)cc3)c2-c2ccncc2)cc1 [Example 30, 4,6-Bis(4-fluorophenyl)-2-[2-(morpholin-4-yl)ethyl]-5-(4-pyridyl)pyrazolo[3,4-b]pyridine] | 83.6% |
| C[S+]([O-])c1ccc(Cn2cc3c(-c4ccc(F)cc4)c(-c4ccncc4)c(-c4ccc(F)cc4)nc3n2)cc1 (centres unmarked) [Example 59, 4,6-Bis(4-fluorophenyl)-2-(4-methylsulfinylbenzyl)-5-(4-pyridyl)pyrazolo[3,4-b]pyridine] | 60% |
| C[C@H](Nc1nccc(-c2cc3cn[nH]c3nc2-c2cccc(C(F)(F)F)c2)n1)c1ccccc1 [Example 128, (1S)-N-(1-Phenylethyl)-[4-[6-[3-(trifluoromethyl)phenyl]-1H-pyrazolo[3,4-b]pyridin-5-yl]pyrimidin-2-yl]amine] | 82% |
| C[S+]([O-])c1ccc(-n2cc3c(-c4ccc(F)cc4)c(-c4ccncc4)c(-c4ccc(F)cc4)nc3n2)cc1 (centres unmarked) [Example 56, 4,6-Bis(4-fluorophenyl)-2-(4-methylsulfinylphenyl)-5-(4-pyridyl)pyrazolo[3,4-b]pyridine] | 58.7% |
| OC1CCN(CCn2cc3c(-c4ccc(F)cc4)c(-c4ccncc4)c(-c4ccc(F)cc4)nc3n2)CC1 [Example 106, 1-[2-[4,6-Bis(4-fluorophenyl)-5-(4-pyridyl)pyrazolo[3,4-b]pyridin-2-yl]ethyl]piperidin-4-ol] | 69.3% |
| CCNc1nccc(-c2cc3cn[nH]c3nc2-c2cccc(C(F)(F)F)c2)n1 [Example 289, N-Ethyl-[4-[6-(3-trifluoromethyl-phenyl)-1H-pyrazolo[3,4-b]pyridin-5-yl]pyrimidin-2-yl]amine] | 51.3% |
| CN(C)C(=O)Cn1cc2c(-c3ccc(F)cc3)c(-c3ccncc3)c(-c3ccc(F)cc3)nc2n1 [Example 80, 2-[4,6-Bis(4-fluorophenyl)-5-(4-pyridyl)pyrazolo[3,4-b]pyridin-2-yl]-N,N-dimethylacetamide] | 69.3% |
| OCCCn1cc2cc(-c3ccnc(NCC4CC4)n3)c(-c3ccc(F)cc3)nc2n1 [Example 212, 3-[5-[2-[(Cyclopropylmethyl)-amino]pyrimidin-4-yl]-6-(4-fluorophenyl)pyrazolo[3,4-b]pyridin-2-yl]propan-1-ol] | 67.5% |
| Fc1ccc(-c2nc3nn(C4CCNCC4)cc3cc2-c2ccncc2)cc1 [Example 121, 6-(4-Fluorophenyl)-2-(4-piperidyl)-5-(4-pyridyl)pyrazolo[3,4-b]pyridine] | 52.1% |
| Cc1ccc(-c2c(-c3ccncc3)c(-c3ccc(F)cc3)nc3nn(CCCO)cc23)o1 [Example 272, 3-[6-(4-Fluorophenyl)-4-(5-methylfuran-2-yl)-5-(4-pyridyl)-pyrazolo[3,4-b]pyridin-2-yl]propan-1-ol] | 65.6% |
| Cn1cc2c(-c3ccco3)c(-c3ccncc3)c(-c3ccc(F)cc3)nc2n1 [Example 183, 6-(4-Fluorophenyl)-4-(2-furyl)-2-methyl-5-(4-pyridyl)pyrazolo[3,4-b]pyridine] | 66.7% |
| Cn1cc2c(-c3ccc(F)cc3)c(-c3ccncc3)c(-c3ccc(F)cc3)nc2n1 [Example 8, 4,6-Bis(4-fluorophenyl)-2-methyl-5-(4-pyridyl)pyrazolo[3,4-b]pyridine] | 66.3% |
| OCCCn1cc2c(-c3ccc(F)cc3)c(-c3ccnc(NCC4CC4)n3)c(-c3ccc(F)cc3)nc2n1 [Example 213, 3-[5-[2-[(Cyclopropylmethyl)amino]-pyrimidin-4-yl]-4,6-bis(4-fluorophenyl)pyrazolo[3,4-b]pyridin-2-yl]propan-1-ol] | 68.1% |
